Residues, ends and D or L forms follow the SMILES beside them.
How the values were obtained:
brain / BBB = assay: In vivo brain uptake, fluorescence microscopy of rat brain; parameters: species or system male Wistar rats; details: i.v., lower doses injected
Procedure: In vivo studies were performed in male Wistar rats housed under a 12 hours light-dark cycle with free access to food and water. The animals were allocated in five groups, each consisting of three rats. Three animal groups received a single i.v. administration of NBD-gH625 at a concentration of 10 µg, 20 µg, and 40 µg/100 g bw, respectively. Control group received vehicle while another group received gH-625 (40 µg/100 g bw). Both NBD-gH625 and gH625 were dissolved in phosphate-buffered saline. After 3.5 hours from the i.v. administration, the animals were anesthetized with Zoletil® (40 mg/100 g) and euthanized by decapitation. This study was carried out in strict accordance with recommendations in the European Guide for the Care and Use of Laboratory Animals. Every effort was made to minimize animal pain and suffering. All animal protocols were approved by the Committee on the Ethics of Animal Experiments of the University of Napoli Federico II (Italy) and the Italian Minister of Health. (Protocol number 2012/000180).
The ex-vivo fluorescence microscopy analysis was performed to evaluate the distribution of NBD-gH625 on both sides of the BBB. In order to evaluate if there is a linear relationship between slides fluorescence integrated density and the amount of the peptide, a calibration curve was obtained. In particular, increasing amounts of NBD-gH625 (0–30 µM) were spotted on microscope slides and images at 515 nm were acquired (See the Results section) and analysed as described below. Brains were removed from animals, sectioned sagittally in thick slices, washed in PBS, mounted on coverslips, stained with DAPI (4′–6 Diamidino-2-Phenylindole, Dilactate) (Invitrogen, Carlsbad, CA, USA) and analysed under Axioskop fluorescence microscope (Zeiss). Images, at least 10 field of view (800 × 700 μm each) for each experimental class, were acquired using an AxioCam MRc5 (Zeiss) with DAPI filter (λex 350 nm; λem 461 nm) and a fluorescein isothiocyanate filter (λex 488 nm; λem 515 nm).
To evaluate the distribution of NBD-gH625 on both sides of the BBB, we estimated the fluorescence inside the blood vessels (without discriminating between the amount present in the blood and that present in the endothelial cells) and outside the blood vessels in 10 images for each experimental class. In detail, to assess the NBD-gH625 that reached without crossing the BBB, we selected blood vessels as the region of interest (ROI) (inbound) and evaluated the fluorescence intensity; then, on the non-zero thresholded images, an inversion of selected ROI was carried out to obtain the complementary ROI to calculate the amounts of NBD-gH625 which crossed the BBB (outbound).
The morphology of blood vessels was easily identified and outlined; the images were calibrated by ImageJ Rodbard function; integrated density values were calculated within the outlines exclusively, to be considered as inside fluorescence. Then, the thresholded and outlined images, to exclude both blood vessels and background values, were used to calculate the integrated density as outside fluorescence.
To evaluate the effect of concentration on the systemic delivery of NBD-gH625, a fluorescence microscopy analysis was performed as previously reported.
Briefly, livers and brains were isolated and fixed for 24 hours in Bouin’s fixative (71% picric acid, 5% acetic acid, 24% formaldehyde) and embedded in paraffin wax (Carlo Erba, Milan, Italy). Tissue sections (10 μm of thickness) were incubated in 0.1% Sudan Black B dissolved in 70% ethanol for 20 minutes to reduce the tissues autofluorescence. The excess of Sudan Black B was removed by washing with Tris-buffered saline containing 0.02% Tween 20[30],[31]. Sections were stained with DAPI to counterstain nuclei, then mounted with a coverslip in glycerol/phosphate-buffered saline (1:1) and acquired using an AxioCam MRc5 with DAPI filter (λex 350 nm; λem 461 nm) and a fluorescein isothiocyanate filter (λex 488 nm; λem 515 nm). […]

[1] = Tryptophan fluorescence, binding isotherm and partition coefficient; format: physicochemical; details: peptide 4 µM, λex 295 nm
Procedure: Emission spectra of the tryptophan contained in the peptide (4 µM) in the absence or presence of target vesicles were recorded between 300 and 400 nm with λex 295 nm in order to determine the presence of the peptide inside the membrane. To establish the strength of peptide-lipid interaction, LUVs were added to the peptide solution (4 µM) and the fluorescence intensity was recorded as a function of the lipid/peptide molar ratio (L/P), in three to four separate experiments. The results were corrected for the dilution factor. We used an L/P ratio of 200:1. […] F∞ was obtained by extrapolation of a double reciprocal plot of the total peptide fluorescence vs the total lipid concentration in the outer leaflet. The fraction of membrane-bound peptide, fb, was determined by fb = (F − F0)/(F∞ − F0), where F represents the fluorescence of peptide after the addition of the vesicles and F0 represents the fluorescence of the unbound peptide. fb allowed us to calculate the equilibrium concentration of the free peptide in the solution, Cf, and the extent of peptide binding Xb. […]
The presence of a tryptophan residue in the middle of the sequence of gH625, allowed the evaluation of the degree of peptide penetration into liposomes of different composition. In particular, we compared the fluorescence emission spectra in vesicles mimicking the BBB and the liver with that in buffer. […]

CC[C@H](C)[C@H](NC(=O)[C@H](CC(C)C)NC(=O)[C@H](C)NC(=O)[C@H](CC(N)=O)NC(=O)[C@H](Cc1ccc(O)cc1)NC(=O)[C@H](Cc1c[nH]cn1)NC(=O)[C@H](C)NC(=O)[C@H](Cc1c[nH]c2ccccc12)NC(=O)[C@H](CCCNC(=N)N)NC(=O)[C@@H](NC(=O)[C@H](CC(C)C)NC(=O)[C@@H](NC(=O)[C@H](CO)NC(=O)[C@H](C)NC(=O)[C@H](CC(C)C)NC(=O)CNC(=O)[C@@H](N)Cc1c[nH]cn1)[C@@H](C)O)[C@@H](C)O)C(=O)N[C@@H](CCCNC(=N)N)C(=O)N[C@@H](C)C(=O)N[C@@H](Cc1ccccc1)C(N)=O [gH625] (H-HGLASTLTRWAHYNALIRAF-NH2)
Percentage of delivered peptide, brain compared to liver (brain / BBB): higher percentages of delivered peptide compared to the liver | Tryptophan fluorescence emission (intensity increase, blue shift): penetration into bilayer ([1]; BBB mimicking LUVs vs buffer): capable of penetrating both lipid bilayers | Tryptophan fluorescence emission (intensity increase, blue shift): penetration into bilayer ([1]; liver mimicking LUVs vs buffer): capable of penetrating both lipid bilayers

Source: PMC6138628, “Enhanced uptake of gH625 by blood brain barrier compared to liver in vivo: characterization of the mechanism by an in vitro model and implications for delivery” (Scientific Reports, 2018)
